Measurements reported in patent US10323007B1, “N2N N4-disubstituted quinazoline-2,4-diamines and uses thereof” (University of South Florida, priority 2016, dated 2019).
≈ marks a conversion by molar mass, not a printed value. Read-outs that look alike come from different tables or passages of the source. One block for each compound: values may come before it.

Tests used:
A. baumannii 1652 [1] = assay: MIC assay, strain 1652; format: cell-based, Acinetobacter baumannii; conditions: Acinetobacter baumannii, strain 1652
Experimental: (§1) MIC and MBC assays were performed in this study as documented by us previously.^17,23,24,25 The A. baumannii strains used are detailed in Table 7.

A. baumannii 1403 [2] = assay: MIC assay, strain 1403; format: cell-based, Acinetobacter baumannii; conditions: Acinetobacter baumannii, strain 1403
Experimental: as §1

A. baumannii 1651 [3] = assay: MIC assay, strain 1651; format: cell-based, Acinetobacter baumannii; conditions: Acinetobacter baumannii, strain 1651
Experimental: as §1

A. baumannii 1649 [4] = assay: MIC assay, strain 1649; format: cell-based, Acinetobacter baumannii; conditions: Acinetobacter baumannii, strain 1649
Experimental: as §1

human HepG2 cells = format: cell-based
Experimental: Cytotoxicity assays were performed using human HepG2 cells (human liver epithelial with hepatocellular carcinoma), as described by us previously.^17,24 Cells were cultured in Dulbecco's modified eagle medium (DMEM), supplemented with 10% fetal bovine serum and 1% penicillin-streptomycin for 3 days at 37° C. and 5% CO2. Cells were then diluted to 1×10^5 ml^−1 using fresh DMEM and added to 96 well tissue culture plates at a volume of 100 μL. Plates were incubated for 24 hours at 37° C. and 5% CO2, allowing the cells to adhere to the plastic. […] Plates were then incubated for 48 hours at 37° C. and 5% CO2. After 48 hours the DMEM was removed and 100 μL of new media was added containing MTT (3-(4, 5-dimethylthiazol-2-yl)-2, 5-diphenyltetrazolium bromide), followed by incubation for four hours at 37° C. and 5% CO2. […] Lead compounds were solvated in 100% DMSO for these studies, which served as the negative control. LD50 values were determined for each compound by comparison to vehicle only controls.

A. baumannii 1650 [5] = assay: MIC assay, strain 1650; format: cell-based, Acinetobacter baumannii; conditions: Acinetobacter baumannii, strain 1650
Experimental: as §1

A. baumannii strain 1403 = format: cell-based, Acinetobacter baumannii; conditions: serial passage, 8 days, start 0.5× MIC
Experimental: An important attribute of novel antibiotics is the ability to fend off the development of resistance towards their effects. To assess this capacity, A. baumannii strains were incubated overnight with 0.5× MIC of each of the frontrunners. The next day cells were washed and used to inoculate fresh media that contained a two-fold increase in drug. This was repeated for a total of 8 days, alongside sulfamethoxazole (SMX) and trimethoprim (TMP) controls, both of which target the same pathway as our lead agents (FIG. 2).
In order to test potential resistance towards the quinazolines, a serial passage assay was performed alongside control compounds (Sulfamethoxazole and Trimethoprim), as described by us previously.^24 A. baumannii strain 1403 was grown overnight in LB media at 37° C. The next day cultures were diluted 1:100 in fresh media and seeded into a 96-well plate. Lead quinazolines or control agents were added to respective wells at half MIC concentrations. […] These were then grown overnight, and the procedure repeated for a total of eight days.

A. baumannii 1646 [6] = assay: MIC assay, strain 1646; format: cell-based, Acinetobacter baumannii; conditions: Acinetobacter baumannii
Experimental: as §1

A. baumannii 1651 [7] = assay: minimal bactericidal concentration (MBC) assay, strain 1651; format: cell-based; conditions: Acinetobacter baumannii, Table 8, read-out: MBC90 1651
Text: (§2) Lead quinazolines 4, 5, 26, 29, 27, and 30 were selected to be further evaluated for antimicrobial effects. The first assay utilized was a minimal bactericidal concentration (MBC) assay, to assess whether leads compounds were bacteriostatic or bactericidal. The six lead agents were screened to identify their MBC90 towards each of the six A. baumannii isolates used in the SAR studies (Table 8), however for simplicity only the representative data for isolate 1646 is detailed below (Table 6). […] Further to this, we were able to obtain complete eradication of bacterial growth for these two compounds at 1 μM for 24 and 5 μM for 25.
as §1

[8] = system: A. baumannii 1650 biofilm; assay: biofilm eradication determination assay, strain 1650; format: cell-based, Acinetobacter baumannii; conditions: 90% biofilm eradication, Table 8
Experimental: (§3) These assays were performed as described by us previously,^26,24 as follows. Each of the A. baumannii strains were grown overnight in Mueller Hinton Broth (MHB). The next day these were used to seed fresh MHB to an OD600 of 0.5, with 150 μL then added to the wells of a 96 well plate and grown for 24 hours at 37° C. After 24 hours, the planktonic bacteria were carefully removed and fresh MHB was added with increasing concentrations of lead quinazolines. After incubation at 37° C. for 24 hours, planktonic cells were removed and biofilms were washed three times with phosphate buffered saline (PBS). Biofilms were then resuspended in PBS and plated for cell viability on tryptic soy agar. Biofilm recovery was assessed compared to no drug controls, and determined as percent eradication. This was used to determine MBEC90 values (Minimal Biofilm Eradication Concentration), where the viability of cells within the biofilm was reduced by 90%.

A. baumannii 1646 [9] = assay: minimal bactericidal concentration (MBC) assay, strain 1646; format: cell-based, Acinetobacter baumannii
Text: as §2, §1

A. baumannii 1649 [10] = assay: minimal bactericidal concentration (MBC) assay, strain 1649; format: cell-based; conditions: Acinetobacter baumannii, Table 8, read-out: MBC90 1649
Text: as §2, §1

A. baumannii 1650 [11] = assay: minimal bactericidal concentration (MBC) assay, strain 1650; format: cell-based; conditions: Acinetobacter baumannii, Table 8, read-out: MBC90 1650
Text: as §2, §1

[12] = system: A. baumannii 1651 biofilm; assay: biofilm eradication determination assay, strain 1651; format: cell-based, Acinetobacter baumannii; conditions: 90% biofilm eradication, Table 8
Experimental: as §3

A. baumannii 1403 [13] = assay: minimal bactericidal concentration (MBC) assay, strain 1403; format: cell-based; conditions: Acinetobacter baumannii, Table 8, read-out: MBC90 1403
Text: as §2, §1

[14] = system: A. baumannii 1649 biofilm; assay: biofilm eradication determination assay, strain 1649; format: cell-based, Acinetobacter baumannii; conditions: 90% biofilm eradication, Table 8
Experimental: as §3

[15] = system: A. baumannii 1403 biofilm; assay: biofilm eradication determination assay, strain 1403; format: cell-based, Acinetobacter baumannii; conditions: 90% biofilm eradication, Table 8
Experimental: as §3

[16] = system: A. baumannii 1652 biofilm; assay: biofilm eradication determination assay, strain 1652; format: cell-based, Acinetobacter baumannii; conditions: 90% biofilm eradication, Table 8
Experimental: as §3

A. baumannii 1652 [17] = assay: minimal bactericidal concentration (MBC) assay, strain 1652; format: cell-based; conditions: Acinetobacter baumannii, Table 8, read-out: MBC90 1652
Text: as §2, §1

[18] = system: A. baumannii 1646 biofilm; assay: biofilm eradication determination assay, strain 1646; format: cell-based, Acinetobacter baumannii
Experimental: as §3

[19] = Tables 1, 3, 4, 5 and footnotes, read-out: 1652 MIC
[20] = Tables 1, 3, 4, 5 and footnotes, read-out: 1403 MIC
[21] = Tables 1, 3, 4, 5 and footnotes, read-out: 1651 MIC
[22] = Tables 1, 3, 4, 5 and footnotes, read-out: 1649 MIC
[23] = Tables 1, 3, 4, 5 and footnotes, read-out: 1650 MIC
[24] = strain 1646, Tables 1, 3, 4, 5 and footnotes, read-out: 1646 MIC

SMILES: Cc1cc(NS(=O)(=O)c2ccc(N)cc2)no1 [SMX, Sulfamethoxazole, reference compound]
MIC (A. baumannii 1652 [1]; [19]): 118 µM (≈ 29.9 µg/mL) | MIC (A. baumannii 1403 [2]; [20]): 138 µM (≈ 35 µg/mL) | MIC (A. baumannii 1651 [3]; [21]): 118 µM (≈ 29.9 µg/mL) | MIC (A. baumannii 1649 [4]; [22]): 118 µM (≈ 29.9 µg/mL) | HepG2 cell viability (human HepG2 cells; human, 48 h, 25 μM): 46% | MIC (A. baumannii 1650 [5]; [23]): 118 µM (≈ 29.9 µg/mL) | increase in MIC over the 8-day test period (A. baumannii strain 1403): 128 fold | MIC (A. baumannii 1646 [6]; [24]): 118 µM (≈ 29.9 µg/mL)

SMILES: COc1cc(Cc2cnc(N)nc2N)cc(OC)c1OC [TMP, trimethoprim, reference compound]
MIC (A. baumannii 1652 [1]; [19]): 103 µM (≈ 29.9 µg/mL) | MIC (A. baumannii 1403 [2]; [20]): 103 µM (≈ 29.9 µg/mL) | MIC (A. baumannii 1651 [3]; [21]): 103 µM (≈ 29.9 µg/mL) | MIC (A. baumannii 1649 [4]; [22]): 517 µM (≈ 150 µg/mL) | HepG2 cell viability (human HepG2 cells; human, 48 h, 25 μM): 45% | MIC (A. baumannii 1650 [5]; [23]): 120 µM (≈ 34.8 µg/mL) | increase in MIC over the 8-day test period (A. baumannii strain 1403): 64 fold | MIC (A. baumannii 1646 [6]; [24]): 34 µM (≈ 9.87 µg/mL)

MIC (A. baumannii 1652 [1]; [19]): 30 µM (≈ 9.97 µg/mL) | MIC (A. baumannii 1652 [1]; lead quinazolines, Table 8, read-out: MIC 1652): 30 µM (≈ 9.97 µg/mL) | MIC (A. baumannii 1403 [2]; [20]): 10 µM (≈ 3.32 µg/mL) | MIC (A. baumannii 1403 [2]; lead quinazolines, Table 8, read-out: MIC 1403): 10 µM (≈ 3.32 µg/mL) | MIC (A. baumannii 1651 [3]; [21]): 2 µM (≈ 0.665 µg/mL) | MIC (A. baumannii 1651 [3]; lead quinazolines, Table 8, read-out: MIC 1651): 2 µM (≈ 0.665 µg/mL) | MIC (A. baumannii 1649 [4]; [22]): 10 µM (≈ 3.32 µg/mL) | MIC (A. baumannii 1649 [4]; lead quinazolines, Table 8, read-out: MIC 1649): 10 µM (≈ 3.32 µg/mL) | MIC (A. baumannii 1650 [5]; [23]): 25 µM (≈ 8.31 µg/mL) | MIC (A. baumannii 1650 [5]; lead quinazolines, Table 8, read-out: MIC 1650): 25 µM (≈ 8.31 µg/mL) | MIC (A. baumannii 1646 [6]; Table 6, representative data for isolate 1646, read-out: MIC): 1 µM (≈ 0.332 µg/mL) | MIC (A. baumannii 1646 [6]; [24]): 2 µM (≈ 0.665 µg/mL) | MIC (A. baumannii 1646 [6]; strain 1646, lead quinazolines, Table 8, read-out: MIC 1646): 1 µM (≈ 0.332 µg/mL)
SMILES: CCC/C=C/c1ccc2nc(NCc3ccccc3)nc(NC)c2c1 [Compound 26, (E)-N^2-Benzyl-N^4-methyl-6-(pent-1-en-1-yl)quinazoline-2,4-diamine]
MBC (A. baumannii 1651 [7]): 5.7 µM (≈ 1.89 µg/mL) | MBEC90 1650 [8]: 50 µM | MBC (A. baumannii 1646 [9]; Acinetobacter baumannii, 1646, strain 1646, Table 8 and text, read-out: MBC90 1646): 1.8 µM (≈ 0.598 µg/mL) | MBC (A. baumannii 1646 [9]; Acinetobacter baumannii, Table 6, representative data for isolate 1646, read-out: MBC90): 1.8 µM (≈ 0.598 µg/mL) | complete bacterial eradication concentration as multiple of MIC (A. baumannii 1646 [9]; isolate 1646): 5 × | concentration giving complete eradication of bacterial growth (A. baumannii 1646 [9]; isolate 1646): 5 µM | MBC (A. baumannii 1649 [10]): 10 µM (≈ 3.32 µg/mL) | MBC (A. baumannii 1650 [11]): 16 µM (≈ 5.32 µg/mL) | MBEC90 1651 [12]: 24 µM | MBC (A. baumannii 1403 [13]): 40 µM (≈ 13.3 µg/mL) | MBEC90 1649 [14]: 63 µM | MBEC90 1403 [15]: 24 µM | MBEC90 1652 [16]: 97 µM | MBC (A. baumannii 1652 [17]): 23 µM (≈ 7.65 µg/mL) | HepG2 cell viability (human HepG2 cells; at 12 μM): 49% | HepG2 cell viability (human HepG2 cells; at 25 μM (highest concentration tested)): 41% | LD50(HepG2) (human HepG2 cells; human, 48 h): 16 µM | MBEC90 ([18]; Table 6, representative data for isolate 1646): 8.9 µM | reduction in biofilm viability ([18]; at 50 μM, strain 1646): 1.4 log | MBEC90 1646 ([18]; strain 1646, 90% biofilm eradication, Table 8 and text): 8.9 µM
